Data on 5 compounds can be found in ChEMBL document CHEMBL6121059, “Small Molecule Modulators of AMP-Activated Protein Kinase (AMPK) Activity and Their Potential in Cancer Therapy” (J Med Chem, 2025).

The target in experiment [1] is 5'-AMP-activated protein kinase catalytic subunit alpha-1 (Homo sapiens, UniProt Q13131). Put plainly: Inhibition of AMPKalpha1 (unknown origin).
Experiment [2] deals with T1, TGF-beta receptor type-1 (Homo sapiens) (UniProt P36897).
T1 sequence (whole entry): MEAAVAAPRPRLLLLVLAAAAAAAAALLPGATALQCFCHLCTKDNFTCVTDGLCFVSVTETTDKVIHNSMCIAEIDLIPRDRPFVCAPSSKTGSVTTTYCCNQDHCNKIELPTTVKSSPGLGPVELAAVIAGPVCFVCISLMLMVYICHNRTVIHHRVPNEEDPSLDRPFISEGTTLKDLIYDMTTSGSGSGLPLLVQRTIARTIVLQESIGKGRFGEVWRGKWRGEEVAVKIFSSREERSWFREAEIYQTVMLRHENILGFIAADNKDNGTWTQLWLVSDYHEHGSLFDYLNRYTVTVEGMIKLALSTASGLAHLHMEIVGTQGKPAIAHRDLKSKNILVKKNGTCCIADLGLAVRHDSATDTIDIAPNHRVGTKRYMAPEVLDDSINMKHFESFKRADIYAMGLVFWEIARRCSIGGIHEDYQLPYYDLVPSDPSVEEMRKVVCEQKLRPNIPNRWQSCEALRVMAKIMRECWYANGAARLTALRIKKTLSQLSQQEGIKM
The experiment can be described thus: Inhibition of ALK5 (unknown origin) at 10 uM relative to control.

The species entered for experiment [3] is Homo sapiens. Put plainly: Inhibition of SRC (unknown origin) at 10 uM relative to control.
Experiment [4] has as its target Serine/threonine-protein kinase PAK 1 (Homo sapiens) (UniProt Q13153). The experiment can be described thus: Activation of PAK1 (unknown origin) at 10 uM relative to control.
Experiment [5] concerns the target Serine/threonine-protein kinase N1 (Homo sapiens) (UniProt Q16512). Put plainly: Activation of PRK1 (unknown origin) at 10 uM relative to control.
Experiment [6] addresses Epithelial discoidin domain-containing receptor 1 (Homo sapiens) (UniProt Q08345). Put plainly: Inhibition of DDR1 (unknown origin) at 10 uM relative to control.
Experiment [7] addresses Leucine-rich repeat serine/threonine-protein kinase 2 (Homo sapiens) (UniProt Q5S007). Put plainly: Activation of LRRK2 (unknown origin) at 10 uM relative to control.
Experiment [8] has as its system LNCaP. The experiment can be described thus: Inhibition of cellular AMPK in human LNCaP cells assessed as reduction in pACC1 levels in cell lysates by HTRF assay. (TR-FRET usually uses a lanthanide donor and a delayed reading to cut background.)
The subject of experiment [9] is IMR-32. Put plainly: Inhibition of cellular AMPK in human IMR-32 cells assessed as reduction in pACC1 levels in cell lysates by HTRF assay.
For experiment [10], the system named is COLO 320. Put plainly: Inhibition of cellular AMPK in human COLO 320 cells assessed as reduction in pACC1 levels in cell lysates by HTRF assay.
The nature of experiment [11]: Inhibition of full length GST-tagged human AMPKalpha2/beta1/gamma1 using HMRSAMSFAEPG biotinylated peptide as substrate in presence of 10 uM ATP by TR-FRET assay.
Experiment [12] concerns VCaP. The experiment can be described thus: Antiproliferative activity against human VCaP cells assessed as reduction in cell viability incubated for 3 days by cell-titer glo assay. It is filed as functional, cell-based. The note with it: 72 h.
A short description of experiment [13]: Inhibition of full length GST-tagged human AMPKalpha2/beta1/gamma1 using HMRSAMSFAEPG biotinylated peptide as substrate in presence of 2 mM ATP by TR-FRET assay.
The nature of experiment [14]: Binding affinity to AMPK (unknown origin) assessed as inhibition constant. More on the design: species or system Homo sapiens.
Experiment [15] in a line: Inhibition of AMPK (unknown origin). The arrangement: species or system Homo sapiens.

Sequence of Leucine-rich repeat serine/threonine-protein kinase 2 (Homo sapiens) (Q5S007 whole entry): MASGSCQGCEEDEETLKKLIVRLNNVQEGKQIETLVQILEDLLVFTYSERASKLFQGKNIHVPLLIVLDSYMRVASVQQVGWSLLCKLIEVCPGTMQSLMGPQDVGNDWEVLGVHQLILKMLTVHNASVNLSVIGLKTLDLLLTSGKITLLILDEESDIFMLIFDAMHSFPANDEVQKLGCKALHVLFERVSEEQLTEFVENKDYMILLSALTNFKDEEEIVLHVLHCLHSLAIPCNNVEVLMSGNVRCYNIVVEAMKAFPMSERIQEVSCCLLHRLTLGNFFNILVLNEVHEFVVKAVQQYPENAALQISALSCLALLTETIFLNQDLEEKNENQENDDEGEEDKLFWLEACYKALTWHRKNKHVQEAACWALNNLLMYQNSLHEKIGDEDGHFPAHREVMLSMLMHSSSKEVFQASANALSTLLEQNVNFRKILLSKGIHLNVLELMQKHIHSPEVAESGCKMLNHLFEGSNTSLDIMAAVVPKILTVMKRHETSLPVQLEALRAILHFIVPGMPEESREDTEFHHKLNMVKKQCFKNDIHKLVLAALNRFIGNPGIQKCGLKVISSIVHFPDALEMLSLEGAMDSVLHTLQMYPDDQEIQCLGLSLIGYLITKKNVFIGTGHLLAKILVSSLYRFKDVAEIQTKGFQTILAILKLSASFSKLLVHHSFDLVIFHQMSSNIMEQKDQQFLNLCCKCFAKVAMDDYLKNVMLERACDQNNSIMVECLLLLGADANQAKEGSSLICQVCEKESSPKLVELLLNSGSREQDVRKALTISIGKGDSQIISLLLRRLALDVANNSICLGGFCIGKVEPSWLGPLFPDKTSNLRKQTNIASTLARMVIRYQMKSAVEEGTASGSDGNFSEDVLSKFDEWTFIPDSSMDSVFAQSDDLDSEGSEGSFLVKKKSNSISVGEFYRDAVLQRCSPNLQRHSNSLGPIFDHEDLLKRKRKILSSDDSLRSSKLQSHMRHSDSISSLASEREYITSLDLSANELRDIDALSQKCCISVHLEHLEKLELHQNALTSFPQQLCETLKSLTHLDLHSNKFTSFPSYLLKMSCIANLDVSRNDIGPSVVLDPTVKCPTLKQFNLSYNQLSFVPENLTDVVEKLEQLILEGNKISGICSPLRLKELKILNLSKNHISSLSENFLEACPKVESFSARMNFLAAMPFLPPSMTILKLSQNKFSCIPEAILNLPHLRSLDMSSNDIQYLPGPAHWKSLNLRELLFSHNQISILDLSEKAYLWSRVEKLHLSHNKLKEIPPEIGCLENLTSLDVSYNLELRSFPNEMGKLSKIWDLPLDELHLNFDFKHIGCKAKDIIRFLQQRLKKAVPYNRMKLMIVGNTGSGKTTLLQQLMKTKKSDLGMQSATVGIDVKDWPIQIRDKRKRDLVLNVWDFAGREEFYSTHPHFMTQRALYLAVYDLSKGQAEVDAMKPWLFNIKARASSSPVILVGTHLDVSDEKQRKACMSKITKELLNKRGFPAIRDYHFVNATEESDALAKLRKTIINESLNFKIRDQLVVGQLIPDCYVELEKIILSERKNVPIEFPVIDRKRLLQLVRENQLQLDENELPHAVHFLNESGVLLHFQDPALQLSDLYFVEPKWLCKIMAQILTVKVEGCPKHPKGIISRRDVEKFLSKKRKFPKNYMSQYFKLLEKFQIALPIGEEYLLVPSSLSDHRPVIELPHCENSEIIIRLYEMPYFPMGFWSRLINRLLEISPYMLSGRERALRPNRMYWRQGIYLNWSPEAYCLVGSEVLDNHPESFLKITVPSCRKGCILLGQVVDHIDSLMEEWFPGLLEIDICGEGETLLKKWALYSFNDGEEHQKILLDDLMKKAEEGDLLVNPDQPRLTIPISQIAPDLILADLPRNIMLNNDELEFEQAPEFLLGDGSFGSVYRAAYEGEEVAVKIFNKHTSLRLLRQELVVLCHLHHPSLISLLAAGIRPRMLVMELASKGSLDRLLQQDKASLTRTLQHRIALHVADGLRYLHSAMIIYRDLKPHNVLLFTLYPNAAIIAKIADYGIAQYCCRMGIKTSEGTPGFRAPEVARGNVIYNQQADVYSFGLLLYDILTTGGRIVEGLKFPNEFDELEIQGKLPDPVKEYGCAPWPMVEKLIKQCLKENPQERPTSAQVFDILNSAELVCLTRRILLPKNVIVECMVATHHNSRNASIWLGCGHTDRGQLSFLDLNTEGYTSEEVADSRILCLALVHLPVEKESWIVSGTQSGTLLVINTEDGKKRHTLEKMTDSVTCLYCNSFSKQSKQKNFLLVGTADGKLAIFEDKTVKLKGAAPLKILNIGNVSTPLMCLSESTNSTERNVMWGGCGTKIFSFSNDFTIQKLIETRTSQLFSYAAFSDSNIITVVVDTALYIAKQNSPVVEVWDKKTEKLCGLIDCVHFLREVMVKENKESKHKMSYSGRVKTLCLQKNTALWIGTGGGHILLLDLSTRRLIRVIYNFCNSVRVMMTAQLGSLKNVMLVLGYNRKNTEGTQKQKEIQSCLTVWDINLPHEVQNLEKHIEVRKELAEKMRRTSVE
Sequence of Epithelial discoidin domain-containing receptor 1 (Homo sapiens) (Q08345 whole entry, the tested form may be a part): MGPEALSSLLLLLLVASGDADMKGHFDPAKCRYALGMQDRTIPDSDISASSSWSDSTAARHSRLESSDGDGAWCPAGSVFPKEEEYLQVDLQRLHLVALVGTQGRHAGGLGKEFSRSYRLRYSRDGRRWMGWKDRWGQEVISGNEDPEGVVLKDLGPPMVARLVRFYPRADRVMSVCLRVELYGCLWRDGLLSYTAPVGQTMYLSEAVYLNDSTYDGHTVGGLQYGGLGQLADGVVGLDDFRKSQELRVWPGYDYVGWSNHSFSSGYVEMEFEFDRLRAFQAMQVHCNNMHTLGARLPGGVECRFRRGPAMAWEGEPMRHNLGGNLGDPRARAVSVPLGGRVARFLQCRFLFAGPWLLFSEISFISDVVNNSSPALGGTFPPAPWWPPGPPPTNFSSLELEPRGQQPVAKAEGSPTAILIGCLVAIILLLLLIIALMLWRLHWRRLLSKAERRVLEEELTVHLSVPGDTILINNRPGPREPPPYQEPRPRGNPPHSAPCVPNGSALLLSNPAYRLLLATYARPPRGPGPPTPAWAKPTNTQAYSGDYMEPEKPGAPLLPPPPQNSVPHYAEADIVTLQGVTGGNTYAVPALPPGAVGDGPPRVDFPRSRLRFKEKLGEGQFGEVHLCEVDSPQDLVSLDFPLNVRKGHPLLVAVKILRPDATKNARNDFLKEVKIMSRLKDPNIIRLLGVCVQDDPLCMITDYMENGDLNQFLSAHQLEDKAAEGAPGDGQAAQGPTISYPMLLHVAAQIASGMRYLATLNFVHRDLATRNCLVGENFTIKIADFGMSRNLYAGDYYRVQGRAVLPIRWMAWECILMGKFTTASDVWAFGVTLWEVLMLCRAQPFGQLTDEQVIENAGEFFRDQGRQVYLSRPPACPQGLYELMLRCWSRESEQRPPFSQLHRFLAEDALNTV
Sequence of Serine/threonine-protein kinase PAK 1 (Homo sapiens) (Q13153 whole entry, looked up): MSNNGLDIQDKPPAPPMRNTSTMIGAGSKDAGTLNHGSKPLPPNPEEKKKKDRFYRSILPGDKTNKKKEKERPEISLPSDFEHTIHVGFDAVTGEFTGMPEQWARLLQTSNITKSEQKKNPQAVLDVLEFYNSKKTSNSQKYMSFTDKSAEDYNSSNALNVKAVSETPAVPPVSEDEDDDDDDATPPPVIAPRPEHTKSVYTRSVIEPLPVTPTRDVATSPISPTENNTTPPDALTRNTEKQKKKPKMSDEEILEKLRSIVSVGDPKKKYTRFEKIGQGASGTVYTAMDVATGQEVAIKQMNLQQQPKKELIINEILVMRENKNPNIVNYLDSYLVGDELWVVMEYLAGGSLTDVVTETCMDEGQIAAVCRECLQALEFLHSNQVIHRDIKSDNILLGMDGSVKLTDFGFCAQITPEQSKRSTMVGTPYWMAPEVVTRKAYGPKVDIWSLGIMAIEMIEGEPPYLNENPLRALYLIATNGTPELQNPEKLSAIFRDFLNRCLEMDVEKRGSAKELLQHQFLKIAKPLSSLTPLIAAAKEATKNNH
Sequence of 5'-AMP-activated protein kinase catalytic subunit alpha-1 (Q13131 whole entry): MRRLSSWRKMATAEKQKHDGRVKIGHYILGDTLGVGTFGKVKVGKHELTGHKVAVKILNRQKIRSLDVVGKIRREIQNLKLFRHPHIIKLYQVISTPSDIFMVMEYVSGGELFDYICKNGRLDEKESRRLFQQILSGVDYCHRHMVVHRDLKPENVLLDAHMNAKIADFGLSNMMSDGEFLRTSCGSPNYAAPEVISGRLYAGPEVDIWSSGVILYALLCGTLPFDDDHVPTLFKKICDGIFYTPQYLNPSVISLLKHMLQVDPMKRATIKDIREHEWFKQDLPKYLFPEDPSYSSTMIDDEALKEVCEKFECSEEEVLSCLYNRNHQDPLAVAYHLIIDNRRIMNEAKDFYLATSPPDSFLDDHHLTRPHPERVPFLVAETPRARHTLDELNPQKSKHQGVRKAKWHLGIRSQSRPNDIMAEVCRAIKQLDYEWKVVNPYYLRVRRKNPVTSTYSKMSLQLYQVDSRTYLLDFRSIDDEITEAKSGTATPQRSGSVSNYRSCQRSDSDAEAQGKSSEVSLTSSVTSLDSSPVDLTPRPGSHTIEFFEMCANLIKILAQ

As usually defined, the IC50 is the concentration at which inhibition is half-maximal. `CNC(=O)c1ccccc1Oc1nc(Nc2cc(OC)c(OC)c(OC)c2)ncc1Br` came in with an IC50 in [1] of 400 nM.
Usually inhibition stands for the share of the control response that was lost under treatment. A lower inhibition goes with a weak effect. For `O=C(O)Cc1csc(Nc2ccc(C(F)(F)F)cc2)n1`, the inhibition in experiment [2], in experiment [3] and in experiment [6] was greater than 50% throughout. For the same compound, the activation in experiment [4], in experiment [5] and in experiment [7] was 30% in each case.
As to `CCc1ccccc1C(=O)Nc1n[nH]c2c(C)c(F)c(C3C(C#N)=C(C)N(C)C(C)=C3C#N)cc12` [BAY-3827], the 50% inhibitory concentration (IC50) is roughly 100 nM in experiment [8]; roughly 150 nM in experiment [9]; roughly 400 nM in experiment [10]; 1.4 nM in [11]; roughly 100 nM in experiment [12]; 15 nM in experiment [13].
By Ki is commonly meant a dissociation constant, usually derived from enzyme kinetics or from competition with a known ligand. Consider `c1cc(-c2cnn3cc(-c4ccc(OCCN5CCCCC5)cc4)cnc23)ccn1` [DORSOMORPHIN], for which the Ki in [14] stood at 109 nM. Inhibition in [15] was half-maximal at 2380 nM (IC50).
With `CCN(CC)CCNC(=O)c1c(C)[nH]c(/C=C2\C(=O)Nc3ccc(F)cc32)c1C` [SUNITINIB], half-maximal inhibition in experiment [15] (IC50) was put at 40 nM.
